Patent publication US20090124682A1, “Indan-Amide Derivatives with Glycogen Phosphorylase Inhibitory Activity” (priority 2005, published 2009)

Experiments:
conscious dogs = settings: following a glucagon challenge; cited from earlier work
hepatocytes = settings: cited from earlier work; for glucose output: glucagon stimulated
db/db and ob/ob mice = db/db and ob/ob mice following treatment; cited from earlier work
[1] = target: T1, Human recombinant liver glycogen phosphorylase a (hrl GPa) (Homo sapiens, UniProt P06737); assay: glycogen phosphorylase multienzyme coupled assay (glucose-1-phosphate production from glycogen); type: biochemical; settings: hrl GPa 20 nM, 6 hours at 30° C., 8 mM glucose
T1 sequence (P06737 1-847): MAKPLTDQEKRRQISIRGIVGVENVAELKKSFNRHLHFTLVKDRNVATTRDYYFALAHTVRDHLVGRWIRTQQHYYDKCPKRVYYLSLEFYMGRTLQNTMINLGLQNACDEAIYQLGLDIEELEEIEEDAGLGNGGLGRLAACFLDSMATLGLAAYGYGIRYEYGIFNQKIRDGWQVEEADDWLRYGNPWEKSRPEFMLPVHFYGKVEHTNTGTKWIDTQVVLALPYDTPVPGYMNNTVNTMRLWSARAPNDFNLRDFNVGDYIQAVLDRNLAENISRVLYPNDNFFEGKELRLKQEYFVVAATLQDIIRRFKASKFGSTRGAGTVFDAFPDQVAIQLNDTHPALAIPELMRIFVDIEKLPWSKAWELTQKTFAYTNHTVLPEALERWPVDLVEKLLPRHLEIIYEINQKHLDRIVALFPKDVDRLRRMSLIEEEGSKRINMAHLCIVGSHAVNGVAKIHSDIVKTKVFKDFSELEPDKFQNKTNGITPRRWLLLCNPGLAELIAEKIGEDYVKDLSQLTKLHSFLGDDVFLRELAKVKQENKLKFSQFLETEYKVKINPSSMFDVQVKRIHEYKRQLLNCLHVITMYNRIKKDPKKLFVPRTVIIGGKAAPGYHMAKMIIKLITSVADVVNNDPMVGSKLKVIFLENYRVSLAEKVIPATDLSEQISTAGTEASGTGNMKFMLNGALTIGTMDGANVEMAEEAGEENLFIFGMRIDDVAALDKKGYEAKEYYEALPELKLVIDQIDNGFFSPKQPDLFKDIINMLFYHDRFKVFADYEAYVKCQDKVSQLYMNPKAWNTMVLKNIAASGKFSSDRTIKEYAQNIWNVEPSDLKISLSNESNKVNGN
Protocol: The activity of the compounds is determined by measuring the inhibitory effect of the compounds on glycogen degradation, the production of glucose-1-phosphate from glycogen is monitored by the multienzyme coupled assay, as described in EP 0 846 464 A2, general method of Pesce et al (Pesce, M A, Bodourian, S H, Harris, R C, and Nicholson, J F (1977) Clinical Chemistry 23, […]). The reactions were in 384 well microplate format in a volume of 50 μl. The change in fluorescence due to the conversion of the co-factor NAD to NADH is measured at 340 nm excitation, 465 nm emission in a Tecan Ultra Multifunctional Microplate Reader. The reaction is in 50 mM HEPES, 3.5 mM KH2PO4, 2.5 mM MgCl2, 2.5 mM ethylene glycol-bis(b-aminoethyl ether) N,N,N′N′-tetraacetic acid, 100 mM KCl, 8 mM D-(+)-glucose pH7.2, containing 0.5 mM dithiothreitol, the assay buffer solution. Human recombinant liver glycogen phosphorylase a (hrl GPa) 20 nM is pre-incubated in assay buffer solution with 6.25 mM NAD, 1.25 mg type III glycogen at 1.25 mg ml^−1 the reagent buffer, for 30 minutes. […] The non-inhibited activity of GPa is measured in the presence of 10 μl 15% DMSO in assay buffer solution and maximum inhibition measured in the presence of 5 mgs ml^−1 N-ethylmaleimide. […] Relative Fluoresence Units (RFUs) are measured at 340 nm excitation, 465 nm emission. […]
Activity is calculated as follows:—

Structure (SMILES) | glucagon stimulated glycogenolysis (hepatocytes) | glucose output (hepatocytes) | plasma glucose concentration (db/db and ob/ob mice) | IC50 [1] [nM] | also measured
CCN1C(C)=C(C(=O)OC(C)C)C(c2ccccc2Cl)C2=C1COC2=O (stereo not shown) [Bay R 3401] |  |  |  |  | arterial plasma glucose (conscious dogs): reduced significantly; hepatic glucose output (conscious dogs): reduced significantly
CN(C)C(=O)[C@H](O)[C@H](Cc1ccccc1)NC(=O)c1cc2cc(Cl)ccc2[nH]1 [CP91149] | reduce | reduce | reduced, in a dose related manner |  | 
O=C(N[C@@H](Cc1ccc(F)cc1)C(=O)N1CCC(O)CC1)c1cc2cc(Cl)ccc2[nH]1 [CP320626] | reduce | reduce | reduced, in a dose related manner |  | 
O=C(O)COC[C@@H]1c2ccccc2C[C@H]1NC(=O)c1cc2cc(F)ccc2[nH]1 [Example 2, [((1R,2R)-2-{[(5-Fluoro-1H-indol-2-yl)carbonyl]amino}-2,3-dihydro-1H-inden-1-yl)methoxy]acetic acid] |  |  |  | 1670 | 
O=C(O)C[C@@H]1c2ccccc2C[C@H]1NC(=O)c1cc2cc(F)ccc2[nH]1 [Example 5, ((1R,2R)-2-{[(5-Fluoro-1H-indol-2-yl)carbonyl]amino}-2,3-dihydro-1H-inden-1-yl)acetic acid] |  |  |  | 161 | 
